Test system: 786-0 complex spheroids with HUVEC/MSC, growth % test/control
Experiment: Anticancer human tumor 786-0 cell line growth inhibition [AhR];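 further: compound exposure lasted seven days before the read-out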
Details: for IC50: curve of first compound; for viability, T/C: stronger effect = lower value
Procedure, shortened: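 Spheroids combined tumor cells with HUVEC endothelial cells and human MSCs as stroma. AhR antagonists were paired with standard or investigational drugs, each dosed in half-log steps down from near clinical Cmax, or from 10 microM where Cmax was unknown.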

[1] = second compound 0.1 µM, first compound 0.0316 µM
[2] = second compound 0.1 µM, first compound 0.1 µM
[3] = second compound 0.1 µM, first compound 0.316 µM
[4] = second compound 0.1 µM, first compound 1 µM
[5] = second compound 0.316 µM, first compound 0.0316 µM
[6] = second compound 0.316 µM, first compound 0.1 µM
[7] = second compound 0.316 µM, first compound 0.316 µM
[8] = second compound 0.316 µM, first compound 1 µM
[9] = second compound 1 µM, first compound 0.0316 µM
[10] = second compound 1 µM, first compound 0.1 µM
[11] = second compound 1 µM, first compound 0.316 µM
[12] = second compound 1 µM, first compound 1 µM
[13] = second compound 3.16 µM, first compound 0.0316 µM
[14] = second compound 3.16 µM, first compound 0.1 µM
[15] = second compound 3.16 µM, first compound 0.316 µM
[16] = second compound 3.16 µM, first compound 1 µM
[17] = second compound 10 µM, first compound 0.0316 µM
[18] = second compound 10 µM, first compound 0.1 µM
[19] = second compound 10 µM, first compound 0.316 µM
[20] = second compound 10 µM, first compound 1 µM

SMILES	IC50 (second compound 0.1 µM) [nM]	IC50 (second compound 0.316 µM) [nM]	IC50 (second compound 1 µM) [nM]	IC50 (second compound 3.16 µM) [nM]	IC50 (second compound 10 µM) [nM]	viability, T/C [1] [%]	viability, T/C [2] [%]	viability, T/C [3] [%]	viability, T/C [4] [%]	viability, T/C [5] [%]	viability, T/C [6] [%]	viability, T/C [7] [%]	viability, T/C [8] [%]	viability, T/C [9] [%]	viability, T/C [10] [%]	viability, T/C [11] [%]	viability, T/C [12] [%]	viability, T/C [13] [%]	viability, T/C [14] [%]	viability, T/C [15] [%]	also measured
CC1COCCN1c1cc(-c2ccnn2C)c2ccnc(-c3ccn[nH]3)c2n1 (stereo not given) + Cc1cncc(-c2nc(NCCc3c[nH]c4ccccc34)c3ncn(C(C)C)c3n2)c1	192	192	150	49.8	< 3.16	108	89.9	19.7	6.85	116	88.4	20.5	7.37	100	69	15	5.51	65	26.9	4.19	viability, T/C (second compound 0.1 µM, first compound 0.00316 µM): 106%; viability, T/C (second compound 0.1 µM, first compound 0.01 µM): 114%; viability, T/C (second compound 0.316 µM, first compound 0.00316 µM): 119%; viability, T/C (second compound 0.316 µM, first compound 0.01 µM): 118%; viability, T/C (second compound 1 µM, first compound 0.00316 µM): 106%; viability, T/C (second compound 1 µM, first compound 0.01 µM): 104%; viability, T/C (second compound 3.16 µM, first compound 0.00316 µM): 74.9%; viability, T/C (second compound 3.16 µM, first compound 0.01 µM): 74.9%; viability, T/C [16]: 2.86%; viability, T/C (second compound 10 µM, first compound 0.00316 µM): 8.14%; viability, T/C (second compound 10 µM, first compound 0.01 µM): 10.1%; viability, T/C [17]: 7.76%; viability, T/C [18]: 1.45%; viability, T/C [19]: 0.29%; viability, T/C [20]: 0.46%
CC1COCCN1c1cc(C2(S(C)(=N)=O)CC2)nc(-c2ccnc3[nH]ccc23)n1 (stereo not given) + Cc1cncc(-c2nc(NCCc3c[nH]c4ccccc34)c3ncn(C(C)C)c3n2)c1	7110	6480	4840	1230	< 31.6	107	118	116	113	122	117	112	108	100	110	105	125	62.4	64.5	69	viability, T/C (second compound 0.1 µM, first compound 3.16 µM): 97.7%; viability, T/C (second compound 0.1 µM, first compound 10 µM): 29.8%; viability, T/C (second compound 0.316 µM, first compound 3.16 µM): 91.9%; viability, T/C (second compound 0.316 µM, first compound 10 µM): 25.3%; viability, T/C (second compound 1 µM, first compound 3.16 µM): 67%; viability, T/C (second compound 1 µM, first compound 10 µM): 20.9%; viability, T/C [16]: 53.6%; viability, T/C (second compound 3.16 µM, first compound 3.16 µM): 26.9%; viability, T/C (second compound 3.16 µM, first compound 10 µM): 5.56%; viability, T/C [17]: 18.2%; viability, T/C [18]: 18.7%; viability, T/C [19]: 20.6%; viability, T/C [20]: 17.5%; viability, T/C (second compound 10 µM, first compound 3.16 µM): 3.02%; viability, T/C (second compound 10 µM, first compound 10 µM): 0.89%
